Measurements as given in PMC6385020 (Molecules, 2019).

Tests used:
[1] = tested on: 22AG (DNA, G4) AGGGTTAGGGTTAGGGTTAGGG; assay: G4-FID, thiazole orange displacement; conditions: 100 mM KCl; 10 mM lithium cacodylate pH 7.3, 1% DMSO; thiazole orange displaced; 1 µM compound, 0.25 µM DNA
[2] = tested on: G4 structures (22AG, c-myc, 21CTA, CEB25-WT); assay: TO-PRO-3-G4-FID assay, G4 structures; format: binding
Description: (§1) For the G4-FID assay, the oligonucleotides were dissolved in K^+100 buffer (10 mM lithium cacodylate buffer pH 7.3, 100 mM KCl, 1% DMSO). Oligonucleotide concentrations were determined on the basis of their absorbance at 260 nm. For the fluorimetric titration, the oligonucleotides were dissolved in K^+100 buffer without DMSO. For the FRET-melting assay, the oligonucleotides were dissolved in K^+1 buffer (10 mM lithium cacodylate buffer pH 7.3, 1 mM KCl, 99 mM LiCl) except for F-21-T. F-21-T was dissolved in K^+10 buffer (10 mM lithium cacodylate buffer pH 7.3, 10 mM KCl, 90 mM LiCl).
(§2) Prior to use, all oligonucleotides were pretreated by heating at 95 °C for 5 min, then rapidly cooled to 4 °C to favor the intramolecular folding by kinetic trapping. Duplex-DNA ds26 was prepared by heating the self-complementary strand at 90 °C for 5 min in K^+1 buffer followed by a slow cooling over 6 h.
(§3) Each G4-FID assay was performed in a 96-well Non-Binding Surface black with black bottom polystyrene microplates (Corning). Every ligand was tested on a line of the microplate, in duplicate. The microplate was filled with (a) K^+100 solution (qs for 200 μL), (b) 10 μL of a solution of pre-folded oligonucleotides (5 μM) and fluorescent probe (TO/TO-PRO-3 (10 μM—2 eq) or PhenDV (7,5 µM—1.5 eq)), and (c) an extemporaneously prepared 5 μM ligand solution in K^+100 buffer (0 to 100 μL) along the line of the microplate, i.e., from column A to column H: 0, 0.125, 0.25, 0.375, 0.5, 0.625, 0.75, 1.0, 1.25, 1.5, 2.0, and 2.5 μM. After 5 min of orbital shaking at 500 rpm, fluorescence is measured using the following experimental parameters: positioning delay of 0.5 s, 20 flashes per well, emission/excitation filters for TO at 485/520, TO-PRO-3 at 620/670, and PhenDV at 355/520 gain adjusted at 80% of the fluorescence from the most fluorescent well (i.e., a well from column A for TO and a well from column H).
(§4) The percentage of TO displacement is calculated from the fluorescence intensity (F), using (1) % TO displacement=1−F/F0 where F0 is the fluorescence from the fluorescent probe bound to DNA without added ligand.
(§5) The PhenDV displacement is calculated from the fluorescence intensity F; F(ligand+probe), which refers to the fluorescence of the probe in presence of the ligand (without G4); and F0, which is the fluorescence without added ligand. The term F(ligand+probe) is necessary as the ligand can quench the fluorescence of the probe. The percentage of displacement is then plotted as a function of the concentration of the added ligand. The DNA affinity was evaluated by the concentration of ligand required to decrease the fluorescence of the probe by 50%, was noted DC50, and was determined after non-linear fitting of the displacement curve.

[3] = tested on: 21CTA (DNA, G4) AGGGCTAGGGCTAGGGCTAGGG; assay: G4-FID, thiazole orange displacement; conditions: 100 mM KCl; 10 mM lithium cacodylate pH 7.3, 1% DMSO; thiazole orange displaced; 1 µM compound, 0.25 µM DNA
[4] = tested on: 21CTA human telomeric sequence variant G4; format: binding; conditions: PhenDV 1.5 eq, K+100 buffer
Description: as §1, §2, §3
In the case of PhenDV, the fluorescence of the unbound probe is not negligible. The percentage of displacement becomes (2) % PhenDV Displacement=F−F0/Fligand+probe−F0
as §5

[5] = tested on: 21CTA human telomeric sequence variant G4; format: binding; conditions: K+100 buffer; for % of TO displacement at 1 µM of ligand: TO 2 eq; for % of TOPRO3 displacement at 1 µM of ligand: TO-PRO-3 2 eq
Description: as §1, §2, §3, §4, §5

[6] = tested on: G4-DNA structures (F-21-T, F-myc-T, F-21CTA-T, F-CEB25-WT-T); assay: FRET-melting assay (ligand-induced stabilization); format: binding, human; conditions: 1 µM ligand, 0.2 µM DNA, all G4-DNA structures, K+1 or K+10 buffer
Description: as §1, §2
The stabilization of the compounds with a quadruplex-structure was monitored via FRET-melting assay performed in 96-well plates on a real-time PCR apparatus 7900HT Fast Real-Time PCR System as follows: 5 min at 25 °C and then an increase of 0.5 °C every minute until 95 °C. Each experimental condition was tested and replicated in a volume of 25 μL for each sample. The FRET-melting assay was performed with three dual fluorescently labeled DNA oligonucleotide sequences oligonucleotides. The donor fluorophore was 6-carboxyfluorescein, FAM, and the acceptor fluorophore was 6-carboxytetramethylrhodamine, TAMRA. The 96-well plates (Applied Biosystems) were prepared by aliquoting the annealed DNA (0.2 μM in K^+1 or K^+10 buffer) into each well, followed by 1 μL of the ligand ([…] (5 eq) in DMSO). For competition experiments, duplex competitors were added to 200 nM quadruplex sequences at final concentrations of 3.0 μM (15 eq) and 10.0 μM (50 eq), with a total reaction volume of 25 μL, with the labeled oligonucleotide (0.2 μM) and the ligand (1 μM). Measurements were made with excitation at 492 nm and detection at 516 nm. The change in the melting temperature at 1.0 μm compound concentration, ΔTm (1.0 μM), was calculated from at least two experiments by subtraction of the blank from the averaged melting temperature of each compound (1.0 μM). The final analysis of the data was carried out using Origin Pro 8.6 data analysis.

[7] = tested on: c-myc (myc22) (DNA, G4) TGAGGGTGGGTAGGGTGGGTAA; assay: G4-FID, thiazole orange displacement; conditions: 100 mM KCl; 10 mM lithium cacodylate pH 7.3, 1% DMSO; thiazole orange displaced; 1 µM compound, 0.25 µM DNA
[8] = tested on: CCD19Lu normal lung cell line; assay: Cell growth (proliferation), 96 h treatment; format: cell-based, human
Description: (§6) The ovarian carcinoma cell lines and human normal lung cells were purchased from ATCC and were grown in complete RPMI medium (ovarian) and DMEM (human lung cells) supplemented with 10% fetal calf serum, in the presence of penicillin, streptomycin. The resistance of A2780cis cells to cisplatin was maintained by monthly treatment with 1 µM cisplatin for 4 days. Concentrated stock solutions of complexes were conserved at −20 °C (DMSO/Water) and freshly diluted in water just before the experiments. Cells were treated with various concentrations of platinum complexes at 37 °C under humidity and 5% CO2 conditions for 96 h. Cellular growth was quantified using the particle counter MOXI (VWR).

[9] = tested on: A2780cis cisplatin-resistant ovarian cancer cell line; assay: Cell growth (proliferation), 96 h treatment; format: cell-based, human; conditions: 96 h treatment; for IC50: A2780cis
Description: as §6

[10] = tested on: A2780 ovarian cancer cell line; assay: Cell growth (proliferation), 96 h treatment; format: cell-based, human; conditions: A2780, 96 h treatment
Description: as §6

Row | SMILES | % TO displacement [1] [%] | TO-PRO-3 displacement [2] | % TO displacement [3] [%] | % of PhenDV displacement at 1 µM of ligand [4] [%] | % of TO displacement at 1 µM of ligand [5] [%] | % of TOPRO3 displacement at 1 µM of ligand [5] [%] | ∆Tm (ligand-induced stabilization, FRET-melting) [6] [°C] | % TO displacement [7] [%] | IC50 [8] [nM] | Resistance Factor (IC50ratio A2780cis/A2780) [9] | IC50 [9] [nM] | IC50 [10] [nM]
1 | [Cl-].[Cl][Pt+].c1ccc(-c2cc(-c3ccc(OCCN4CCCC4)cc3)nc(-c3ccccn3)n2)nc1 [Pt-cpym, Chloro-(2,4-di(pyridin-2-yl)-6-(4-(2-(pyrrolidin-1-yl)ethoxy)phenyl)pyrimidine)-platinum(II) Chloride] | < 60 | weak displacement | < 60 | 72 | 82 | 25 | < 10 | < 60 | 1800 | 1.3 | 5000 | 3800
2 | CN(C)CCCNCc1ccc(-c2cc(-c3ccccn3)nc(-c3ccccn3)c2)cc1.[Cl-].[Cl][Pt+] [Pt-ctpy] | > 80 |  | > 80 | 100 | 93 | 83 | > 10 | > 80 | 5200 | 1.1 | 5000 | 4600
3 | [Cl-].[Cl][Pt+].c1ccc(-c2cccc(-c3ccccn3)n2)nc1 [Pt-tpy] |  | weak displacement |  | 35 | 24 | 23 | < 10 |  | 3000 | 1.6 | 5000 | 3000
4 | Cc1ccc(-c2cc(-c3ccccn3)nc(-c3ccccn3)c2)cc1.[Cl-].[Cl][Pt+] [Pt-ttpy] | > 80 |  | > 80 | 90 | 87 | 62 | > 10 | > 80 | 1750 | 1.0 | 2500 | 2500
5 | CN(C)c1ccc(/C=C/c2cc(-c3ccccn3)nc(-c3ccccn3)n2)cc1.[Cl-].[Cl][Pt+] [Pt-vpym, Chloro-(E)-4-(2-(2,6-di(pyridin-2-yl)pyrimidin-4-yl)vinyl)-N,N-dimethylaniline-platinum(II) Chloride] |  | 30% |  |  |  | 32 | < 10 |  | 700 | 0.6 | 400 | 700
